Assay [1] has as its target IRAK1 (Homo sapiens, UniProt P51617). Briefly: RBC HotSpot kinase inhibition assay, IRAK1. The class given is biochemical. As to conditions: isolated kinase, 33P-ATP, 2 h.
Excerpt: (§1) This assay uses the isolated kinase enzyme. This assay is very useful for determining competition of the inhibitor for ATP and/or substrates and for measuring the kinetics of enzyme inhibition. […] Unlike kinase binding assays that measure competition for ATP, the HotSpot Kinase Assay is a functional assay that measures catalytic activity; as such it measures relative functional potency regardless of the mechanism of enzyme inhibition. This assay uses the form of the various enzymes that are easiest to express, which may not necessarily be the form of the enzyme that exist in the cell. (Sometimes the carboxy terminus has been truncated to aid in expression, or, if it is a receptor kinase, the enzyme itself is isolated from the other parts of the receptor that are involved in regulating kinase activity.)
(§2) The reagent used was as follows: Base Reaction buffer; 20 mM Hepes (pH 7.5), 10 mM MgCl2, 1 mM EGTA, 0.01% Brij35, 0.02 mg/ml BSA, 0.1 mM Na3VO4, 2 mM DTT, 1% DMSO. Required cofactors were added individually to each kinase reaction.
(§3) The reaction procedure was as follows: • 1) Substrates were prepared in freshly prepared Reaction Buffer. • 2) Any required cofactors were delivered to the substrate solution above. • 3) Kinase was delivered into the substrate solution and gently mixed. • 4) Compounds were delivered in 100% DMSO into the kinase reaction mixture by Acoustic technology (Echo550; nanoliter range), followed by incubation for 20 min at room temp. • 5) ^33P-ATP was delivered into the reaction mixture to initiate the reaction. • 6) The mixture was incubated for 2 hours at room temperature. • 7) Kinase activity was detected by P81 filter-binding method.
as §1, with “Although not wishing to be limited by theory, it is believed that sometimes” for “(Sometimes”, “activity.” for “activity.)”
(§4) The reagent used was as follows: Base Reaction buffer; 20 mM Hepes (pH 7.5), 10 mM MgCl2, 1 mM EGTA, 0.01% Brij35, 0.02 mg/ml BSA, 0.1 mM Na3 VO4, 2 mM DTT, 1% DMSO.
(§5) Required cofactors were added individually to each kinase reaction.
as §3, with “33P-ATP” for “^33P-ATP”

The target in assay [2] is T1, IRAK4 (Homo sapiens, UniProt Q9NWZ3).
T1 sequence (Q9NWZ3 1-460): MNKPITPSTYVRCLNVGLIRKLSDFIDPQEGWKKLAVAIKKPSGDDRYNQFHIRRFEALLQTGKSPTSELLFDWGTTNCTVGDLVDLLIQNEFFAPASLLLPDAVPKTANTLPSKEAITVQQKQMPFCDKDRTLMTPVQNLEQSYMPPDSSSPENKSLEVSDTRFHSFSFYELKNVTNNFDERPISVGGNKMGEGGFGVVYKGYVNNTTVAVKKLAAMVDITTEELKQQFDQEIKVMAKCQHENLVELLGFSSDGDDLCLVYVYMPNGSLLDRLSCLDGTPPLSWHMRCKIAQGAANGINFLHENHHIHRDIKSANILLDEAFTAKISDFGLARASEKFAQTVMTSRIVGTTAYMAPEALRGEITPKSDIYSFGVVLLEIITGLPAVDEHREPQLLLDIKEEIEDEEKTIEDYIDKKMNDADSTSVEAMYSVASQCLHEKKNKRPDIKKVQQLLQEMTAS
Briefly: RBC HotSpot kinase inhibition assay, IRAK4. The class given is biochemical. The following applies: isolated kinase, 33P-ATP, 2 h.
Excerpt: as §1, §2, §3
as §1, with “Although not wishing to be limited by theory, it is believed that sometimes” for “(Sometimes”, “activity.” for “activity.)”
as §4, §5
as §3, with “33P-ATP” for “^33P-ATP”

Assay [3] has as its target T2, FLT3 (Homo sapiens, UniProt P36888).
T2 sequence (P36888 27-993): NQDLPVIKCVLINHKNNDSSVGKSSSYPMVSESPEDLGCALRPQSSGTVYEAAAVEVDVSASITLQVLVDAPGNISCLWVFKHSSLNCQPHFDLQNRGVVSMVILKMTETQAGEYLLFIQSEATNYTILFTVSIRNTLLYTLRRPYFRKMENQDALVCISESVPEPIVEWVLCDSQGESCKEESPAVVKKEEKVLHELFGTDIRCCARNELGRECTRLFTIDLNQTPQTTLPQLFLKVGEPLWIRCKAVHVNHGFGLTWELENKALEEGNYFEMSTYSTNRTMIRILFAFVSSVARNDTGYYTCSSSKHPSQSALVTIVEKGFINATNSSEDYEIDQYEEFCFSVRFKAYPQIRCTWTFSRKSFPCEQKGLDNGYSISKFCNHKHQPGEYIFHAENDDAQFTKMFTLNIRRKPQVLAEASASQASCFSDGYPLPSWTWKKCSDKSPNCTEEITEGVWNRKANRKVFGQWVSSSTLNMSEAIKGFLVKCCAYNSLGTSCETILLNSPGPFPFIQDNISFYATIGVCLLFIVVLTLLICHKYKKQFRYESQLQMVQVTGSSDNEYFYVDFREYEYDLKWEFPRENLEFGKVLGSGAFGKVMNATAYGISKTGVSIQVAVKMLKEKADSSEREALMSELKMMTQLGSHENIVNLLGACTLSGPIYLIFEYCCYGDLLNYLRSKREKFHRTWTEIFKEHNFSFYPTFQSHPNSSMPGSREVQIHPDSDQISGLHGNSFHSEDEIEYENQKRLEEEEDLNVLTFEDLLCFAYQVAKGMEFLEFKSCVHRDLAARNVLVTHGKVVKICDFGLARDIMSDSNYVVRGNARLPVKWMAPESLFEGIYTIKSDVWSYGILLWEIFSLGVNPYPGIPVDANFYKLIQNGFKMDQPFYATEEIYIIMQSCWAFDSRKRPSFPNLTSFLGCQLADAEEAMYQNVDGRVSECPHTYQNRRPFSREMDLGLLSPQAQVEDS
Briefly: RBC HotSpot kinase inhibition assay, FLT3. The format is biochemical. The following applies: isolated kinase, 33P-ATP, 2 h.
Excerpt: as §1, §2, §3
as §1, with “Although not wishing to be limited by theory, it is believed that sometimes” for “(Sometimes”, “activity.” for “activity.)”
as §4, §5
as §3, with “33P-ATP” for “^33P-ATP”

Assay [4] relates to MOLM14 D835Y cells. Nature of the assay: MOLM14 D835Y cell viability (Cell Titer Glo). The format is cell-based. The following applies: Homo sapiens. The protocol:
Both cell lines have activated FLT3 receptors, each of which carry additional resistance mutations in the kinase domain (D835Y and F691L, respectively).
(§6) MOLM14 D835Y and MOLM14 F691L cells were grown in RPMI-1640 media supplemented with 20% fetal bovine serum (FBS). For viability/cytotoxicity assessments, cells were seeded into 1536-well white polystyrene tissue culture-treated Greiner plates using a Multidrop Combi dispenser (ThermoFisher), in final volume 5 μL of growth media per well, at a density of 1000 cells per well. After cell addition, 23 nL of test compound were transferred into individual wells (22 doses tested for each test compound, with a 1:2 dilution series starting at 10 μM) via a 1536 pin-tool. Bortezomib (final concentration 2.3 μM) was used as a positive control for cell cytotoxicity. Plates were incubated for 48 hours at standard incubator conditions covered by a stainless steel gasketed lid to prevent evaporation. 48 hours post compound addition, 3 μL of Cell Titer Glo (Promega) were added to each well and plates were incubated at room temperature for 15 minutes with the stainless-steel lid in place. Luminescence readings were taken using a Viewlux imager (PerkinElmer) with a 2 second exposure time per plate.
This cell line has activated FLT3 receptors, which carries an additional resistance mutation in the kinase domain at D835Y.
as §6, with “D835Y” for “D835Y and MOLM14 F691L”, “mL” for “μL”, “mM)” for “μM)”

Assay [5] relates to NF-κB. Nature of the assay: NF-κB SEAP reporter assay in THP-1-Blue NF-κB cells, Pam3CSK4 stimulated. The format is cell-based. As to conditions: Table 21; THP-1-Blue cells, 1 ng/ml Pam3CSK4, 24 h; read-out: NF-κB Pam3SCK4 IC50. The procedure: (§7) THP-1-Blue NF-κB cells (InvivoGen) carrying a stable integrated NF-κB-inducible secreted embryonic alkaline phosphatase (SEAP) reporter construct were plated at a concentration of 1×10^5 cells per well. The cells were stimulated with Pam3CSK4 (1 ng/ml) or hIL1B (1 ng/ml). After 10-20 minutes, the cells were then treated with vehicle (DMSO) or serial dilutions of the test compounds (10 doses tested for each test compound, with a […] starting at 1 μM or 3 μM) with a final volume of 200 μL for 24 hours at 37 °C. After 24 hours, the cells were centrifuged and 20 μL supernatant was incubated with 180 μL QUANTI-Blue reagent at 37 °C for 30-60 minutes. The levels of NF-κB-induced was measured in a microplate reader at 620 nm.
as §7, with “1 mM” for “1 μM”, “3 mM)” for “3 μM)”, “200 mL” for “200 μL”, “20 mL” for “20 μL”, “180 mL” for “180 μL”, “NF-κB-induced gene expression were” for “NF-κB-induced was”
On the technique in general: Reporter assays use an easily measured gene product as a stand-in for the process of interest.

In assay [6] the test system is NF-κB. Briefly: NF-κB SEAP reporter assay in THP-1-Blue NF-κB cells, hIL1B stimulated. The following applies: Table 21; THP-1-Blue cells, 1 ng/ml hIL1B, 24 h; read-out: NF-κB IL1B IC50. The class given is cell-based. The procedure: as §7
as §7, with “1 mM” for “1 μM”, “3 mM)” for “3 μM)”, “200 mL” for “200 μL”, “20 mL” for “20 μL”, “180 mL” for “180 μL”, “NF-κB-induced gene expression were” for “NF-κB-induced was”

Chain of IRAK1 (P51617 whole entry, the tested form may be a part): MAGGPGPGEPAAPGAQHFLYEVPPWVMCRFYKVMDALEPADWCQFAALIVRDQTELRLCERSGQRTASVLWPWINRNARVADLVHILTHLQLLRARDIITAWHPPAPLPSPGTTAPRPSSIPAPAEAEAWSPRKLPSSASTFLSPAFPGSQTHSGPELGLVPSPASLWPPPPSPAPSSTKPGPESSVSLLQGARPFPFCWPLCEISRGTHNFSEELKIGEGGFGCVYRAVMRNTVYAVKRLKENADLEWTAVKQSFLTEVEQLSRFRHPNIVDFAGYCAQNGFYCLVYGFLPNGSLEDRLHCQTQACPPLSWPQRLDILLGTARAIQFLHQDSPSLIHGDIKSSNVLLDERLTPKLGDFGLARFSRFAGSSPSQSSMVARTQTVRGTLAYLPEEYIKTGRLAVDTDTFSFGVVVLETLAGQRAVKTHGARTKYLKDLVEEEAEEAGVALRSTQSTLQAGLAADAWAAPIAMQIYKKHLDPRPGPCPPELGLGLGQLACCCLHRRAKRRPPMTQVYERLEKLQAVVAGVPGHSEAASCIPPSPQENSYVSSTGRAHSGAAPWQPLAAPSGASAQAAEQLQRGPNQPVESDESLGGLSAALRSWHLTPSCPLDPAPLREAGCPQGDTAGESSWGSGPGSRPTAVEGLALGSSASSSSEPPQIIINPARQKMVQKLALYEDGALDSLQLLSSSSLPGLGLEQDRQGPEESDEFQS

As usually defined, the IC50 is the concentration that inhibits the measured activity by half. For the compound `COc1cn2ncc(-c3nc(N[C@H]4CNC[C@@H]4F)ccc3F)c2nc1C1CC1` [Compound 1, 6-(5-cyclopropyl-6-methoxypyrazolo[1,5-a]pyrimidin-3-yl)-5-fluoro-N-((3S,4S)-4-fluoropyrrolidin-3-yl)pyridin-2-amine], the 50% inhibitory concentration (IC50) was 0.9 nM in assay [1] (Table 11); below 0.5 nM in assay [2] (Table 11); below 0.5 nM in assay [3] (Table 11); 9 nM in assay [4] (MOLM-14, Table 16, 48 h).
Turning to `COc1cn2ncc(-c3ccnc(N[C@H]4CNC[C@@H]4F)n3)c2nc1C(C)(C)O` [Compound 1a, 2-(3-(2-(((3S,4S)-4-fluoropyrrolidin-3-yl)amino)pyrimidin-4-yl)-6-methoxypyrazolo[1,5-a]pyrimidin-5-yl)propan-2-ol], the IC50 in assay [1] (Table 17) amounted to 162 nM; in assay [2] (Table 17), 9 nM; in assay [3] (Table 17), 2 nM; in assay [4] (MOLM-14, Table 22, 48 h), 257 nM.
Take `COc1cn2ncc(-c3ccc(F)c(N[C@H]4CNC[C@@H]4F)n3)c2nc1C1CC1` [Compound 4, 6-(5-cyclopropyl-6-methoxypyrazolo[1,5-a]pyrimidin-3-yl)-3-fluoro-N-((3S,4S)-4-fluoropyrrolidin-3-yl)pyridin-2-amine]: the half-inhibitory concentration (IC50) in assay [1] (Table 11) is 4 nM; in assay [2] (Table 11), 0.9 nM; in assay [3] (Table 11), below 0.5 nM; in assay [4] (MOLM-14, Table 16, 48 h), 36 nM.
For `COc1cn2ncc(-c3ccnc(N[C@@H]4CCCNC4)n3)c2nc1C1CC1` [Compound 9a, (R)-4-(5-cyclopropyl-6-methoxypyrazolo[1,5-a]pyrimidin-3-yl)-N-(piperidin-3-yl)pyrimidin-2-amine], the IC50 is 44 nM in assay [1] (Table 17); 4 nM in assay [2] (Table 17); below 0.5 nM in assay [3] (Table 17); 173 nM in assay [5]; 128 nM in assay [6].
As to `COc1cn2ncc(-c3cncc(N[C@H]4CNC[C@@H]4F)n3)c2nc1C1CC1` [Compound 10a, 6-(5-cyclopropyl-6-methoxypyrazolo[1,5-a]pyrimidin-3-yl)-N-((3S,4S)-4-fluoropyrrolidin-3-yl)pyrazin-2-amine], the IC50 in assay [1] (Table 17) was 6 nM; in assay [2] (Table 17) it was 0.7 nM; in assay [3] (Table 17), below 0.5 nM; in assay [4] (MOLM-14, Table 22, 48 h), 81 nM.
For the compound `COc1cn2ncc(-c3nc(N[C@@H]4CCCNC4)c(F)cc3F)c2nc1C1CC1` [Compound 23, (R)-6-(5-cyclopropyl-6-methoxypyrazolo[1,5-a]pyrimidin-3-yl)-3,5-difluoro-N-(piperidin-3-yl)pyridin-2-amine], the IC50 is below 0.5 nM in assay [1] (Table 11); below 0.5 nM in assay [2] (Table 11); below 0.5 nM in assay [3] (Table 11); 5 nM in assay [4] (MOLM-14, Table 16, 48 h).

These data come from patent publication US20260374773A1, “MULTI-CYCLIC IRAK AND FLT3 INHIBITING COMPOUNDS AND USES THEREOF” (CHILDREN'S HOSPITAL MEDICAL CENTER, priority 2022, published 2026).
